Assay results reported in patent US9730943B2, “Alkoxy-substituted 2,3-dihydroimidazo[1,2-C]quinazolines” (BAYER INTELLECTUAL PROPERTY GMBH, priority 2010, dated 2017).

How the values were obtained:
PI3Kβ = biological target: T1, PI3Kβ (Homo sapiens, UniProt P42338); assay: PI3Kβ kinase assay (HTRF based PI3K inhibition assay); type: biochemical; conditions: for inhibition at 0.93 µM: 0.93 μM compound, read-out: PI3K beta average % Inhibition at 0.93 μM; for IC50: complex of human p110β and human p85α, 10 μM ATP, 10 μM PIP2, read-out: average IC50 in the PI3K beta biochemical assay; for PI3K beta average IC50/ PI3K alpha average IC50: ratio of PI3K beta IC50 to PI3K alpha IC50 (A2 and A1)
T1 construct: N-terminal His6-tagged recombinant full-length human p110β; His6 (N); purchased Millipore 14-603; host or cells: baculovirus infected Sf21 insect cells
Description: Determination of % Inhibition and IC50 Values of Compounds in PI3Kβ Kinase Assay
PI3Kβ inhibitory activity of compounds of the present invention was quantified employing the HTRF based PI3K inhibition assay as described below.
(§1) As reagents for the kinase reaction itself and the quantification of the reaction product, the PI3-Kinase HTRF Assay kit from Millipore (#33-017) was used. With this kit the phosphatidylinositol 3,4,5-trisphosphate (PIP3) generated in the kinase reaction is detected by displacement of a biotinylated ligand from an energy transfer complex consisting of a Europium-labeled anti-GST monoclonal antibody, a GST-tagged PH domain, biotinylated PIP3 and Streptavidin-Allophycocyanin (APC).
(§2) For the assay 50 nL of a 80-fold concentrated solution of the test compound in DMSO was pipetted into a black low volume 384-well microtiter plate (Greiner Bio-One, Frickenhausen, Germany), 3 μl of a solution of PI3Kβ and phosphatidylinositol-4,5-bisphosphate (PIP2, 13.8 μM=>final conc. in 4 μl reaction volume=10 μM) in 1× reaction buffer (exact composition not disclosed by the vendor) were added and the mixture was incubated for 15 min at 22° C. to allow pre-binding of the test compounds to the enzyme before the start of the kinase reaction. The amount of PI3Kβ was chosen to have the enzyme reaction in the linear range and depended on the activity of the individual lot, typical concentrations in assay were in the range of 120 ng/mL. Then the kinase reaction was started by the addition of 1 μL of a solution of adenosine triphosphate (ATP, 40 μM=>final conc. in the 4 μl assay volume is 10 μM) in reaction buffer and the resulting mixture was incubated for a reaction time of 20 min at 22° C.
(§3) The reaction was stopped by the addition of 1 μL of an stop solution (containing the biotinylated PIP3 used as a tracer). Then 1 μL detection mix (containing a Europium-labeled anti-GST monoclonal antibody, a GST-tagged PH domain, and Streptavidin-Allophycocyanin) was added and resulting mixture was incubated for 3 h at 22° C. to allow the formation of complexes between the detection reagents and either the PIP3 generated in the kinase reaction, or the biotinylated PIP3 added with the stop solution. Subsequently the amount of energy transfer complex consisting of a Europium-labeled anti-GST monoclonal antibody, a GST-tagged PH domain, biotinylated PIP3 and Streptavidin-Allophycocyanin (APC) was evaluated by measurement of the resonance energy transfer from the Europium-labeled anti-GST monoclonal antibody to the Streptavidin-Allophycocyanin. Therefore, the fluorescence emissions at 620 nm and 665 nm after excitation at 350 nm were measured using a TR-FRET reader, e.g., a Pherastar (BMG Labtechnologies, Offenburg, Germany) or a Viewlux (Perkin-Elmer). The ratio of the emissions at 665 nm and at 622 nm were taken as the measure for the amount of biotinylated PIP3 bound to the GST-tagged PH domain, which is negatively correlated with the amount of PIP3 generated.

PI3Kα = biological target: T2, PI3Kα (Homo sapiens, UniProt P42336); assay: PI3Kα kinase assay (HTRF-based PI3K inhibition assay); type: biochemical; conditions: for inhibition at 0.93 µM: 0.93 μM compound, read-out: PI3K alpha average % Inhibition at 0.93 μM; for IC50: complex of human p110α and human p85α, 10 μM ATP, 10 μM PIP2, read-out: average IC50 in the PI3K alpha biochemical assay
T2 construct: N-terminal His6-tagged recombinant full-length human p110α; His6 (N); purchased Millipore 14-602; host or cells: baculovirus infected Sf21 insect cells
Description: Determination of % Inhibition and IC50 Values of Compounds in PI3Kα Kinase Assay
PI3Kα inhibitory activity of compounds of the present invention was quantified employing the HTRF-based PI3K inhibition assay as described below.
as §1
as §2, with “Germany), 3 μL of a” for “Germany), 3 μl of a”, “solution of PI3Kα and phosphatidylinositol-4,5-bisphosphate” for “solution of PI3Kβ and phosphatidylinositol-4,5-bisphosphate”, “amount of PI3Kα was chosen” for “amount of PI3Kβ was chosen”, “range of 90 ng/mL. Then” for “range of 120 ng/mL. Then”, “the 4 μL assay volume” for “the 4 μl assay volume”
as §3, with “as a tracer), then 1 μL” for “as a tracer). Then 1 μL”, “was incubated 3 h” for “was incubated for 3 h”, “stop solution. Subsequently, the amount” for “stop solution. Subsequently the amount”, “[…] was taken as” for “622 nm were taken as”, “PIP3 generated. […] Normally test compounds were tested on the same microtiter plate at 10 different concentrations in the range of 25 μM to 1.3 nM (25 μM, 8.3 μM, 2.8 μM, 0.93 μM, 0.31 μM, 103 nM, 34 nM, 11 nM, 3.8 nM and 1.3 nM, a dilution series prepared before the assay at the level of the 80-fold conc. stock solutions by serial 1:3 dilutions) in duplicate values for each concentration and […] values were calculated by a 4-parameter fit using in-house software.” for “PIP3 generated.”

T2 sequence (P42336 whole entry): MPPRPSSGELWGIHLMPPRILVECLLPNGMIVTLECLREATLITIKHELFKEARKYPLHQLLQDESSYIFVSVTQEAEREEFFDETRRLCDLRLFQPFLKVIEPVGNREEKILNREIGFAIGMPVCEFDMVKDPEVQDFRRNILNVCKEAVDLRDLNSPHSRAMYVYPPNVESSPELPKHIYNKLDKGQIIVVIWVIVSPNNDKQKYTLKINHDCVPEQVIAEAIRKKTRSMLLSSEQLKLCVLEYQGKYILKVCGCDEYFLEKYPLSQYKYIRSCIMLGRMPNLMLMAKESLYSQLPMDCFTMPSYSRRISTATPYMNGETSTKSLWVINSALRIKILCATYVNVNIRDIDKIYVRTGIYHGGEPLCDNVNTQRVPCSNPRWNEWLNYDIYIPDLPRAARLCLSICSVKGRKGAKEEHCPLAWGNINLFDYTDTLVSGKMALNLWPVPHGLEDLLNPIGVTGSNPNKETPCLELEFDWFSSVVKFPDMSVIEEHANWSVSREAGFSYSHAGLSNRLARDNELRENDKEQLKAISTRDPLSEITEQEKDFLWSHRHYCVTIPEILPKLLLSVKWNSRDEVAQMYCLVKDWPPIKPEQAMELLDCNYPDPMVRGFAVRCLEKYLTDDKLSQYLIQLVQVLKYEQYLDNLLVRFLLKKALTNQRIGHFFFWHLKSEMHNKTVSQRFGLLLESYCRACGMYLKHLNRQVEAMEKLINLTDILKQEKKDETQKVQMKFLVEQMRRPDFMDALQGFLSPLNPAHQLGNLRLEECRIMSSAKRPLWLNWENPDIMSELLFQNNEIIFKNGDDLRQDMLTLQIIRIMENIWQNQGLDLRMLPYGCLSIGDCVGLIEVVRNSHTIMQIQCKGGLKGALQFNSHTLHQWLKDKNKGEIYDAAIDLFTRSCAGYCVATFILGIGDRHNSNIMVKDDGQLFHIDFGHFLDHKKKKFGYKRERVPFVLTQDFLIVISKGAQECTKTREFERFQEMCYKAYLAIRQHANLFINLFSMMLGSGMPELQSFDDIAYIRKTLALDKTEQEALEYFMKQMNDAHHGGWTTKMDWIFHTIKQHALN
T2 sequence (P27986 whole entry partner): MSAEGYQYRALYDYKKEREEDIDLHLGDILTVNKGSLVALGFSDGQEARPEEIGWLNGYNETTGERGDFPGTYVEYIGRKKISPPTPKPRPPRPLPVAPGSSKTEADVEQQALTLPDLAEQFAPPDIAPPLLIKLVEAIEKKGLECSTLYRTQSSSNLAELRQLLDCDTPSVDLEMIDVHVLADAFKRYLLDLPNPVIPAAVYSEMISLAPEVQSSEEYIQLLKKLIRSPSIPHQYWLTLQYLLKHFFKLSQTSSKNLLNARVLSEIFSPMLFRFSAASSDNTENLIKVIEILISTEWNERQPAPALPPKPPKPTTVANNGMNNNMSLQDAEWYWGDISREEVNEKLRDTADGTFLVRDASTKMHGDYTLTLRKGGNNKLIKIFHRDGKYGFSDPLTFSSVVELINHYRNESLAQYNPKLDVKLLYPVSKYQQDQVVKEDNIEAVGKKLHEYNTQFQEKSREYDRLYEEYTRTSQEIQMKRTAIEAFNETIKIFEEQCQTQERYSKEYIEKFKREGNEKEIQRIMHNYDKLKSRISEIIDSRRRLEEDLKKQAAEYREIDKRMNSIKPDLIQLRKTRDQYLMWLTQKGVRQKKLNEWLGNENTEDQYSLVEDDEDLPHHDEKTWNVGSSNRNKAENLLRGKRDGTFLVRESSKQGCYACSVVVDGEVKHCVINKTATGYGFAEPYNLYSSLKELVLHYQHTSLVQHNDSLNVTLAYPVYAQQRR
T1 sequence (P42338 whole entry): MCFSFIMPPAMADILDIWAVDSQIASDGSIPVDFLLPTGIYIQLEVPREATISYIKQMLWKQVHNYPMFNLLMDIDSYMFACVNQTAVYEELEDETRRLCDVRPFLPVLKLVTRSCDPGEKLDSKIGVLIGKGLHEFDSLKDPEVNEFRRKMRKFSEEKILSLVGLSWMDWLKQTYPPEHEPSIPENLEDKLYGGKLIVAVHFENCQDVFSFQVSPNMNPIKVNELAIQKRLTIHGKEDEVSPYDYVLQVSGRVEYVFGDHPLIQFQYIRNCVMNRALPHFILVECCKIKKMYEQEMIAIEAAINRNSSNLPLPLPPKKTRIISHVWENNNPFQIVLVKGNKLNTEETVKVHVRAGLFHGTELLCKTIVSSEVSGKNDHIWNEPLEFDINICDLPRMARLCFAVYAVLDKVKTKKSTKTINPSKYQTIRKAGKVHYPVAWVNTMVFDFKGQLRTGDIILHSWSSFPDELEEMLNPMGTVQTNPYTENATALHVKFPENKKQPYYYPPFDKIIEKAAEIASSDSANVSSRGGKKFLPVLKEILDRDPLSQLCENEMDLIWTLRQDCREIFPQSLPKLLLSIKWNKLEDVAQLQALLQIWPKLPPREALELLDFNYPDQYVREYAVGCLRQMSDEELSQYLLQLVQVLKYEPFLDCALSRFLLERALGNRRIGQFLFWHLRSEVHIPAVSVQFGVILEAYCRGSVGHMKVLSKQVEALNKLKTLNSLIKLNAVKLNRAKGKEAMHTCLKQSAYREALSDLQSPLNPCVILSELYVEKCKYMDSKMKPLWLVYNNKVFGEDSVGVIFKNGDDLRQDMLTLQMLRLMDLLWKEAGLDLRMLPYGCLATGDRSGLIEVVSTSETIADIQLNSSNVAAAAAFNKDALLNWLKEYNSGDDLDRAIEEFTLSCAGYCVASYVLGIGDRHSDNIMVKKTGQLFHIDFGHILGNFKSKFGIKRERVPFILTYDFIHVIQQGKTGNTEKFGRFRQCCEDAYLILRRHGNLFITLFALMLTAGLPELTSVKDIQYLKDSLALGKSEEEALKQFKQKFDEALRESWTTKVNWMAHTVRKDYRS
T1 sequence (P27986 whole entry partner): as the sequence (P27986 whole entry partner) above

COc1c(OC[C@H](O)CN2CCOCC2)ccc2c1N=C(NC(=O)c1cccnc1)N1CCN=C21 [Example 2, N-(8-{[(2R)-2-hydroxy-3-(morpholin-4-yl)propyl]oxy}-7-methoxy-2,3-dihydroimidazo[1,2-c]quinazolin-5-yl)pyridine-3-carboxamide]
inhibition at 0.93 µM (PI3Kβ): 94.4%

CC(C)N(C[C@@H](O)COc1ccc2c(c1OCCc1ccc(F)cc1)N=C(NC(=O)c1cccnc1)N1CCN=C21)C(C)C [Example 7, N-(8-{[(2R)-3-(dipropan-2-ylamino)-2-hydroxypropyl]oxy}-7-[2-(4-fluorophenyl)ethoxy]-2,3-dihydroimidazo[1,2-c]quinazolin-5-yl)pyridine-3-carboxamide]
inhibition at 0.93 µM (PI3Kα): 91.5% | IC50 (PI3Kα): < 10 nM | inhibition at 0.93 µM (PI3Kβ): 90% | IC50 (PI3Kβ): 10 to 50 nM | PI3K beta average IC50/ PI3K alpha average IC50 (PI3Kβ): 2.78

C[C@@H]1CN(C[C@@](C)(O)COc2ccc3c(c2OCCc2ccc(F)cc2)N=C(NC(=O)c2cccnc2)N2CCN=C32)C[C@H](C)O1 (relative stereo) [Example 12, rel-N-{8-({(2R)-3-[(2R,6S)-2,6-Dimethylmorpholin-4-yl]-2-hydroxy-2-methylpropyl}oxy)-7-[2-(4-fluorophenyl)ethoxy]-2,3-dihydroimidazo[1,2-c]quinazolin-5-yl}pyridine-3-carboxamide]
inhibition at 0.93 µM (PI3Kα): 104% | IC50 (PI3Kα): 10 to 50 nM | inhibition at 0.93 µM (PI3Kβ): 100% | IC50 (PI3Kβ): > 50 nM | PI3K beta average IC50/ PI3K alpha average IC50 (PI3Kβ): 3.69

O=C(NC1=Nc2c(ccc(OCC(O)CN3CCOCC3)c2OCCc2ccc(F)cc2)C2=NCCN12)c1cccnc1 (stereo not shown) [Example 9, N-{7-[2-(4-Fluorophenyl)ethoxy]-8-[2-hydroxy-3-(morpholin-4-yl)propoxy]-2,3-dihydroimidazo[1,2-c]quinazolin-5-yl}pyridine-3-carboxamide]
inhibition at 0.93 µM (PI3Kα): 98.8% | IC50 (PI3Kα): 10 to 50 nM | inhibition at 0.93 µM (PI3Kβ): 102% | IC50 (PI3Kβ): < 10 nM | PI3K beta average IC50/ PI3K alpha average IC50 (PI3Kβ): 0.63

C[C@@H]1CN(C[C@@](C)(O)COc2ccc3c(c2OCCc2ccc(F)cc2)N=C(NC(=O)c2cnc(N)nc2)N2CCN=C32)C[C@H](C)O1 (relative stereo) [Example 11, rel-2-Amino-N-{8-({(2R)-3-[(2R,6S)-2,6-dimethylmorpholin-4-yl]-2-hydroxy-2-methylpropyl}oxy)-7-[2-(4-fluorophenyl)ethoxy]-2,3-dihydroimidazo[1,2-c]quinazolin-5-yl}pyrimidine-5-carboxamide]
inhibition at 0.93 µM (PI3Kα): 109% | IC50 (PI3Kα): < 10 nM | inhibition at 0.93 µM (PI3Kβ): 95.3% | IC50 (PI3Kβ): 10 to 50 nM | PI3K beta average IC50/ PI3K alpha average IC50 (PI3Kβ): 9.66

COc1c(OC[C@](C)(O)CN2C[C@@H](C)O[C@@H](C)C2)ccc2c1N=C(NC(=O)c1cccnc1)N1CCN=C21 (relative stereo) [Example 10, rel-N-[8-({(2R)-3-[(2R,6S)-2,6-Dimethylmorpholin-4-yl]-2-hydroxy-2-methylpropyl}oxy)-7-methoxy-2,3-dihydroimidazo[1,2-c]quinazolin-5-yl]pyridine-3-carboxamide]
inhibition at 0.93 µM (PI3Kα): 93.2% | IC50 (PI3Kα): < 10 nM | inhibition at 0.93 µM (PI3Kβ): 81.6% | IC50 (PI3Kβ): > 50 nM | PI3K beta average IC50/ PI3K alpha average IC50 (PI3Kβ): 8.95

C[C@@H]1CN(C[C@@H](O)COc2ccc3c(c2OCCc2ccc(F)cc2)N=C(NC(=O)c2cccnc2)N2CCN=C32)C[C@H](C)O1 [Example 8, N-{8-({(2R)-3-[(2R,6S)-2,6-Dimethylmorpholin-4-yl]-2-hydroxypropyl}oxy)-7-[2-(4-fluorophenyl)ethoxy]-2,3-dihydroimidazo[1,2-c]quinazolin-5-yl}pyridine-3-carboxamide]
inhibition at 0.93 µM (PI3Kα): 99.9% | IC50 (PI3Kα): 10 to 50 nM | inhibition at 0.93 µM (PI3Kβ): 96.7% | IC50 (PI3Kβ): 10 to 50 nM | PI3K beta average IC50/ PI3K alpha average IC50 (PI3Kβ): 2.28
